In PubChem BioAssay AID179 (DTP/NCI, 2004) one finds EC50, IC50 and outcome data, which are given here for 72 compounds.

For the assay, the system named is CEM cells HIV-1 protection, formazan growth assay. Put plainly: NCI AIDS Antiviral Assay. The note with it: for IC50: measured here: growth of uninfected CEM cells. The procedure, abridged: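 Human CEM cells, uninfected and HIV-1-infected, exposed to five drug concentrations; growth measured by soluble formazan assay and scored as percent protection from infection, with protecting compounds retested.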

Where “and” joins values, the source holds several entries; their conditions need not be identical. Equal entries are not always repeated. Calls of active or inactive are those of the source.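 How the source made its calls: active means compounds giving half or more protection of infected cells from virus-caused growth loss, again on retest; inactive means the rest.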

Regarding `CN(C)CCc1ccc(Cl)cc1Cl`, the EC50 was greater than 977 µM and the IC50 was determined as 407 µM.

Regarding `O=C(/C=C/c1ccc(O)c(O)c1)NC(CO)C(=O)O` (configuration not stated), the EC50 is greater than 200 µM and the concentration for half-maximal inhibition (IC50) was determined as 28.8 µM.

For the compound `O=C(O)C[C@@H]1[C@@H](O)[C@@H](O)CN2C(=O)c3ccccc3[C@H]12`, the EC50 is greater than 200 µM and the concentration for half-maximal inhibition (IC50) was greater than 200 µM.

Consider `O=S1c2ccccc2N=C(c2ccc(Cl)cc2)CC1c1cccs1` (configuration not stated), for which the EC50 is greater than 7.41 µM and the half-maximal inhibitory concentration (IC50) was greater than 7.41 µM.

Consider `Nc1nn2c(=O)c3ccccc3nc2s1`, for which the EC50 is greater than 200 µM and the IC50 was 89.1 µM.

In the case of `O=C(Nc1nc(=S)c2c(ncn2CCO)[nH]1)c1ccccc1`, the EC50 was greater than 575 µM and the concentration for half-maximal inhibition (IC50) is 28.2 µM.

Turning to `CCOC(=O)c1c(O)cc(=O)[nH]c1N1CCOCC1`, the EC50 is greater than 200 µM and the IC50 was greater than 200 µM.

Consider `COc1ccc2nccc(NCCCN3CCN(CCCNc4ccnc5ccc(OC)cc45)CC3)c2c1`, for which the EC50 was greater than 0.537 µM and the IC50 worked out at 0.105 µM.

In the case of `Cc1cc(O)c(C(C)C)cc1NC(=O)Nc1cccc2ccccc12`, the EC50 is greater than 56.2 µM and the IC50 was 40.7 µM.

Consider `Cc1nc(N)nc(N)c1CCCc1ccccc1`, for which the outcome was inactive.

As for `Cc1ccc2c(c1)C1(SCCC(=O)N1c1ccc(Cl)cc1)C(=O)N2` (configuration not stated), the EC50 is greater than 191 µM and the 50% inhibitory concentration (IC50) was 91.2 µM.

In the case of `COc1cc2c[n+](C)c3c4cc(OC)c(OC(C)C)cc4ccc3c2cc1OC`, the EC50 is greater than 295 µM and the concentration for half-maximal inhibition (IC50) was determined as 13.5 µM.

As to `Cc1cc(C)nc(NS(=O)(=O)c2ccc(NC(=O)c3cccc4c(Nc5ccc(S(N)(=O)=O)cc5)c5ccccc5nc34)cc2)n1`, the EC50 is greater than 55 µM and the concentration for half-maximal inhibition (IC50) was 21.9 µM.

Consider `CC(C)C(=O)Nc1nc2nc[nH]c2c(=O)[nH]1`, for which the EC50 was greater than 85.1 µM and the half-inhibitory concentration (IC50) is greater than 85.1 µM.

Regarding `O=[N+]([O-])c1ccc(-c2nn3c(C45CC6CC(CC(C6)C4)C5)nnc3s2)c(Cl)c1`, the EC50 is greater than 200 µM and the 50% inhibitory concentration (IC50) was greater than 200 µM.

Take `Nc1nnc2ccccn12`: the EC50 was greater than 977 µM and the IC50 was greater than 977 µM.

As to `O1[SiH]2[SiH]3O[SiH]3[SiH]3O[SiH]3[SiH]12` (configuration not stated), the outcome was inactive.

Consider `CC1=NN(C(=O)CC(=O)Nc2ccccc2Cl)C(=O)C1N=Nc1ccc(C(=O)O)cc1` (configuration not stated), for which the EC50 was greater than 200 µM and the IC50 was determined as 81.3 µM.

Turning to `O=C1c2cccc3cccc(c23)C(=O)N1CCCN1C(=O)c2cccc3cccc(c23)C1=O`, the EC50 was greater than 200 µM and the IC50 came out at 110 µM.

As for `O=C(O)c1cscc1C(=O)O`, the EC50 is greater than 200 µM and the IC50 was greater than 200 µM.

`O=c1c2ccccc2nc(-c2ccccc2)n1NCC1(O)OCC(O)C(O)C1O` (configuration not stated): the outcome was inactive.

As for `O=C(Cn1c(=O)oc2ccc(C(=O)c3cccc(Cl)c3)cc21)c1ccccc1`, the EC50 is greater than 200 µM and the IC50 was 56.2 µM.

`Cc1ccccc1NC(=O)C(=O)CC(=O)c1sc(Nc2ccccc2[N+](=O)[O-])nc1C`: the EC50 was greater than 200 µM and the IC50 was greater than 200 µM.

Take `O=C1C2CCC(N1CCc1ccccc1)n1c(=O)n(-c3ccccc3)c(=O)n12` (configuration not stated): the EC50 was greater than 200 µM and the half-inhibitory concentration (IC50) is greater than 200 µM.

As for `NCCCNCCCCN1CCOC1=O`, the EC50 was greater than 200 µM and the IC50 turned out to be 50.1 µM.

Take `O=C1CC2(C[C@@H]3CCCCCCCCC[C@@H](C3)C2)N1` (some centres not stated): the EC50 was greater than 200 µM and the IC50 is 40.7 µM.

As to `C/C(CCN(C)C)=N\OC(=O)c1ccccc1`, the EC50 was greater than 200 µM and the half-maximal inhibitory concentration (IC50) was greater than 200 µM.

In the case of `Cc1nnnn1C12CC3CC(CC(C3)C1)C2`, the outcome was inactive.

In the case of `COc1cc(O)c(C(=O)CC(C)=O)c(OC)c1`, the EC50 is greater than 398 µM and the IC50 amounted to 174 µM.

With `O=C(Nc1ccccc1-c1nc2ccccc2[nH]c1=O)c1ccccc1`, the EC50 is greater than 52.5 µM and the IC50 was 29.5 µM.

In the case of `O=C1c2cccnc2S(=O)N1Cc1ccccc1` (configuration not stated), the EC50 is 105 µM and the IC50 is greater than 200 µM.

With `N=C(N)C1CN(CCCCCCCCCCN2CC(C(=N)N)C(=O)NC2=O)C(=O)NC1=O` (configuration not stated), the EC50 was greater than 200 µM and the IC50 was greater than 200 µM.

Regarding `CON(C)C(C#N)=C(C#N)C#N`, the EC50 was greater than 200 µM and the concentration for half-maximal inhibition (IC50) was greater than 200 µM.

Take `COc1cc(/C=C2/SC(c3ccccc3)N(c3ccc(Cl)cc3)C2=O)cc(OC)c1OC` (configuration not stated): the outcome was inactive.

Turning to `Oc1cc(N2CCCC2)ccc1/C=N/N1C(=S)N(c2ccccc2)C(=Nc2ccccc2)C1=Nc1ccccc1`, the EC50 is greater than 100 µM and the IC50 was greater than 100 µM.

In the case of `C=C1C2CC[C@@]3(CC[C@@H]4[C@@]5(C)CCC[C@@]4(C=[N+](CCOC(C)=O)C5)[C@@H]3C2)[C@@H]1OC(C)=O`, the outcome was inactive.

Consider `COC1(OC)/C(=C(\N)C=O)NC(C)(C)N1O`, for which the outcome was inactive.

Take `CCCCC1Sc2cc(OC)cc(N)c2NC1=O` (configuration not stated): the EC50 was greater than 200 µM and the IC50 is 158 µM.

For `COC(=O)c1ccc(CCC2=CC(=O)C(Br)=CC2=O)cc1`, the EC50 was greater than 200 µM and the IC50 was determined as 9.33 µM.

Regarding `CCN(CC)c1c(-c2c(N(CC)CC)c(OC(C)=O)c3sccn3c2=O)c(=O)n2ccsc2c1OC(C)=O`, the EC50 is greater than 200 µM and the half-inhibitory concentration (IC50) was greater than 200 µM.

On to `COP(=O)(OC)C(Cc1cn(C(C)=O)c2ccccc12)C(=O)O` (configuration not stated), for which the EC50 is greater than 200 µM and the IC50 is greater than 200 µM.

For the compound `O=C(NC1=C(Cl)C(=O)c2ccccc2C1=O)C(=O)C(C(=O)c1ccc2ccccc2c1)C1OC(=O)c2ccccc21` (configuration not stated), the EC50 is greater than 45.7 µM and the IC50 was 11.5 µM.

Take `COc1nc(NC2OC(COC(C)=O)C(OC(C)=O)C(OC(C)=O)C2OC(C)=O)c(N=CC=Nc2c(NC3OC(COC(C)=O)C(OC(C)=O)C(OC(C)=O)C3OC(C)=O)nc(OC)n(C)c2=O)c(=O)n1C` (configuration not stated): the result was inactive.

On to `COc1c(Cl)cc(C(=CCC(=O)O)c2cc(Cl)c(OC)c(C(=O)O)c2)cc1C(=O)O`, for which the EC50 is 30.2 µM and the 50% inhibitory concentration (IC50) was greater than 200 µM.

Consider `O=C(NC1=Nc2c(ncn2COCCO)S(=O)(=O)[N-]1)c1ccccc1.[Ag+]`, for which the EC50 was greater than 200 µM and the half-maximal inhibitory concentration (IC50) came to 3.55 µM.

`CCOP(=O)(OCC)/C(C#N)=C/c1ccccc1O`: the EC50 is greater than 891 µM and the 50% inhibitory concentration (IC50) was greater than 891 µM.

On to `CC1CC(C)(C)N=C(CCCO)O1` (configuration not stated), for which the EC50 was greater than 200 µM and the IC50 is greater than 200 µM.

Consider `S=C1SC(=Nc2ccccc2)C(=Nc2ccccc2)N1c1ccc2ccccc2c1`, for which the EC50 is greater than 200 µM and the IC50 came to 14.1 µM.

For `COc1cccc(NC(=S)/C(=C(/[O-])c2ccc([N+](=O)[O-])cc2)[n+]2ccccc2)c1`, the EC50 was greater than 200 µM and the IC50 is greater than 200 µM.

For `C[C@]12C=CC(=O)C=C1[C@@H](F)C[C@H]1[C@@H]3CC[C@](O)(C(=O)CO)[C@@]3(C)C[C@H](O)[C@@]12F`, the result was inactive.

For the compound `O=C1CSC(c2c[nH]c3ccccc23)N1c1cccc([N+](=O)[O-])c1` (configuration not stated), the EC50 is greater than 200 µM and the 50% inhibitory concentration (IC50) is 21.9 µM.

Take `CC(=O)C1(O)C(=[N+]=[N-])C(=O)Nc2ccccc21` (configuration not stated): the EC50 was greater than 200 µM and the half-maximal inhibitory concentration (IC50) worked out at 66.1 µM.

For the compound `c1ccc(CN2COc3ccc4c5c(ccc4c3C2)OCN(Cc2ccccc2)C5)cc1`, the EC50 was greater than 2.45 µM and the IC50 was greater than 2.45 µM.

`O=C(CCN(C(=O)O)S(=O)(=O)c1ccc(NC(=O)c2ccccc2)cc1)NC1CCCCC1`: the EC50 was greater than 525 µM and the IC50 is greater than 525 µM.

On to `Cc1nc2ccccc2c(N)c1-c1cc(C)c2c(C)nc3ccccc3c2n1`, for which the EC50 is greater than 200 µM and the 50% inhibitory concentration (IC50) came to 3.89 µM.

Consider `Cc1c2ccc(Cl)cc2nc2ccc(OCCCCCCNC(=O)CCCN=C(N)N)cc12`, for which the EC50 was greater than 50.1 µM and the concentration for half-maximal inhibition (IC50) turned out to be 22.9 µM.

Regarding `C/C(CN1C(=O)c2ccccc2C1=O)=N\NS(=O)(=O)c1ccc(F)cc1`, the EC50 was greater than 479 µM and the IC50 was greater than 479 µM.

With `COc1cccc(/C(Cl)=C(\C=O)c2cccc(OC)c2)c1`, the EC50 is greater than 17.4 µM and the half-inhibitory concentration (IC50) stood at 9.12 µM.

Consider `O=[N+]([O-])/C(Cl)=C(/C(Cl)=C(Cl)Cl)N1CCOCC1`, for which the EC50 was greater than 200 µM and the concentration for half-maximal inhibition (IC50) was determined as 8.71 µM.

Turning to `CCCCCCCCC(=O)N(C)C1C2CN3CCC(O2)C13` (configuration not stated), the result was inactive.

With `C=CCN(N=O)C(=O)N(CCCCC(NC(C)=O)C(=O)NCc1ccccc1)Cc1ccccc1` (configuration not stated), the EC50 was greater than 28.2 µM and the IC50 was greater than 28.2 µM.

Take `C/C(C/C(C)=N\N=C(N)N)=N/N=C(N)N`: the EC50 is greater than 200 µM and the half-inhibitory concentration (IC50) was greater than 200 µM.

On to `Cc1ccc(/C=C2\N=C(N3CCCCC3)NC2=O)cc1`, for which the EC50 is greater than 200 µM and the IC50 was found to be 191 µM.

Take `O=c1ssc(=Nc2ccccc2)n1-c1ccccc1`: the EC50 was greater than 200 µM; the IC50 is 67.6 µM and 56.2 µM.

For the compound `N.N.N.N.N.O=C([O-])CCl.[Co+3].[O-][Cl+3]([O-])([O-])[O-]`, the result was inactive.

Regarding `Cc1ccc(S(=O)(=O)N/N=C(/c2nc3ccc([N+](=O)[O-])cc3[nH]c2=O)C(O)c2ccc(C(O)/C(=N\NS(=O)(=O)c3ccc(C)cc3)c3nc4ccc([N+](=O)[O-])cc4[nH]c3=O)cc2)cc1` (configuration not stated), the EC50 is greater than 39.8 µM and the IC50 is greater than 39.8 µM.

Consider `CC12CCC(C(=O)OC1=O)C2(C)C` (configuration not stated), for which the EC50 is greater than 200 µM and the concentration for half-maximal inhibition (IC50) is greater than 200 µM.

In the case of `O=C1NP23(OCCO2)Oc2ccccc2C3(C(F)(F)F)O1` (configuration not stated), the EC50 was greater than 776 µM and the IC50 was found to be 389 µM.

As to `CC(C)N=C(N)NC#N`, the EC50 was greater than 1480 µM and the IC50 is greater than 1480 µM.

Consider `Cc1ccc(NC(=O)C2C(=O)N(c3ccc(C)c(C)c3)C(=O)/C2=N\NC(N)=O)cc1C` (configuration not stated), for which the result was inactive.

On to `CCCC#CC(O)(C(=O)OC1CCN(C)CC1)C1CCCCC1` (configuration not stated), for which the EC50 is greater than 200 µM and the IC50 was greater than 200 µM.

Take `COc1ccc(NC(=S)N/N=C/c2ccccn2)cc1`: the EC50 is greater than 2 µM and the half-maximal inhibitory concentration (IC50) is 0.316 µM.
